Patent US9399631B2, “Polyphenol proteasome inhibitors, synthesis, and methods of use” (UNIVERSITY OF SOUTH FLORIDA, priority 2003, dated 2016)
pIC50: −log10 of the molar value. Entries after “also recorded” stand apart in the source; their conditions may differ. Where two headings read alike, the source gives them in different places.

Columns and labels:
MCF-7 cells = experiment: Proteasome inhibition / p27 accumulation in MCF-7 cells; format: cell-based, human
VA-13 cells = experiment: Western blot of p27 in SV40-transformed VA-13 fibroblasts; format: cell-based, human; conditions: 25 μM, 12 hours
Description: (§1) Cell Culture, Cell Extract Preparation, and Western Blot Assay. Human leukemia Jurkat T and prostate cancer LNCaP cells were cultured in RPMI 1640 medium supplemented with 10% fetal calf serum, 100 units/ml of penicillin, and 100 μg/ml streptomycin. Human immortalized, non-transformed NK cells (YT cell line) (38) were cultured in RPMI 1640 supplemented with 1 mM MEM sodium pyruvate solution, 0.1 mM MEM non-essential amino acids solution, 10% fetal calf serum. 100 units/ml penicillin, and 100 μg/ml streptomycin. Normal (WI-38) and simian virus 40 (SV40)-transformed (VA-13) human fibroblasts were grown in Dulbecco's modified Eagle's medium supplemented with 10% fetal calf serum, 100 units/ml of penicillin and 100 μg/ml of streptomycin. All cells were maintained at 37° C. in a humidified incubator with an atmosphere of 5% CO2. A whole cell extract was prepared in accordance with An et al. (An, B. et al. Cell Death Differ, 1998, 5:1062-75). Briefly, cells were harvested, washed with PBS twice, and homogenized in a lysis buffer [50 mM Tris-HCl (pH 8.0), 5 mM EDTA, 150 mM NaCl, 0.5% NP-40, 0.5 mM phenylmethylsulfonyl fluoride, and 0.5 mM dithiothreitol] for 30 min at 4° C. Afterwards, lysates were centrifuged at 12,000×g for 15 min at 4° C., and the supernatants were collected as whole cell extracts. Equal amounts of protein extract (60 μg) were resolved by SDS-polyacrylamide gel electrophoresis and transferred to a nitrocellulose membrane using a Semi-Dry Transfer system (BIO-RAD, Hercules, Calif.). Jurkat T, LNCaP, or DU-145 cells were treated with various concentrations of synthetic or natural tea polyphenols for indicted hours. The enhanced chemiluminescence (ECL) Western blot analysis was then performed using specific antibodies to the proteins of interest (p^27kip, IκB-α, PARP, Bax or actin). The ratio of p27 or IκB-α to the corresponding actin was determined by scanning intensities of the protein bands.
Normal WI-38 and SV40-transformed VA-13 cell lines were treated with 25 μM of (−)-EGCG, (−)-EGCG-amide, (+)-EGCG, (+)-EGCG-amide, or GTP-1 for either 12 hours or 36 hours.

[1] = molecular target: T1, 20S eukaryotic proteasome (Oryctolagus cuniculus, UniProt G1T4Q9); experiment: Inhibition of chymotrypsin-like activity of purified eukaryotic 20S proteasome (Suc-Leu-Leu-Val-Tyr-AMC); format: biochemical, rabbit; conditions: chymotrypsin-like activity, rabbit 20S proteasome
T1 construct: purchased BOSTON BIOCHEM (Cambridge, Mass.)
T1 sequence (G1T4Q9 1-263): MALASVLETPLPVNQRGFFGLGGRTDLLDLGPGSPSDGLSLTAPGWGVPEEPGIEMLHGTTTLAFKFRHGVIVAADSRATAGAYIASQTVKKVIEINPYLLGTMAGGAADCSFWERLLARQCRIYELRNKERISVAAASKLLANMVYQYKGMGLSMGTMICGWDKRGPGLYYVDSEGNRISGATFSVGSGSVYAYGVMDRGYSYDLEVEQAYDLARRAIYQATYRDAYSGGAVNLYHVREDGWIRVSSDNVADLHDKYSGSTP
Description: Materials. Highly purified tea polyphenols (−)-EGCG (>95%), (−)-GCG (>98%), (−)-ECG (>98%), (−)-CG (>98%), fetal calf serum, propidium iodide, 3-[4,5-dimethylthiazol-2-yl]-2,5-diphenyltetrazolium bromide (MTT), RNase A, and DMSO were purchased from Sigma (St. Louis, Mo.). (+)-EGCG, benzyl-protected-(+)-EGCG, (+)-GCG, (−)-EGCG-amide, and (+)-EGCG-amide were prepared by enantioselective synthesis (see below). Purified 20S eukaryotic proteasome from rabbit was purchased from BOSTON BIOCHEM (Cambridge, Mass.). Purified 20S prokaryotic proteasome (Methanosarcina thermophile, Recombinant, E. coli) was purchased from CALBIOCHEM (La Jolla, Calif.). Fluorogenic peptide substrates Suc-Leu-Leu-Val-Tyr-AMC (for the proteasomal chymotrypsin-like activity) was obtained from Calbiochem (La Jolla, Calif.). RPMI 1640 medium, Dulbecco's modified Eagle's medium, MEM non-essential amino acids solution, MEM-sodium pyruvate solution, penicillin, and streptomycin were from INVITROGEN (Carlsbad, Calif.). Monoclonal antibody to p27^Kip was purchased from PHARMINGEN (San Diego, Calif.); polyclonal antibodies to IκB-α, Bax and actin, and monoclonal antibody to ubiquitin were from SANTA CRUZ Biotechnology Inc. (Santa Cruz, Calif.).
(§2) Inhibition of purified 20S proteasome activity by natural or synthetic GTPs. Purified prokaryotic (0.5 μg) or eukaryotic (0.02 μg) 20S proteasome was incubated with 20 μM fluorogenic peptide substrate, Suc-Leu-Leu-Val-Tyr-AMC for 30 min at 37° C. in […] of assay buffer (50 mM Tris-HCl, pH 7.5), with or without a natural or synthetic tea polyphenol. After incubation, production of hydrolyzed 7-amido-4-methyl-coumarin (AMC) groups was measured using a multi-well plate VERSAFLUOR Fluorometer with an excitation filter of 380 nm and an emission filter of 460 nm (BIO-RAD), and a multi-well plate reader Wallac 1420 VICTORTM^2 with an excitation filter of 355 nm and an emission filter of 460 nm (EG&G WALLAC).
Purified prokaryotic (0.5 μg) or eukaryotic (0.02 μg) 20S proteasome was incubated with 20 μM fluorogenic peptide substrate, Suc-Leu-Leu-Val-Tyr-AMC for 30 minutes at 37° C. in 100 μl of assay buffer ([…] Tris-HCl, pH 7.5), with or without a natural or synthetic tea polyphenol. After incubation, production of hydrolyzed AMC groups was measured using a multi-well plate VERSAFLUOR Fluorometer with an excitation filter of 380 nm and an emission filter of 460 nm.
(−)-EGCG at 1 μM was incubated with eukaryotic 20S proteasome (0.02 μg) and suc-LLVY-AMC (20 μM) for the times indicated in FIG. 7. The chymotrypsin activity was measured and graphed in FIG. 7. Values are means from 4 independent experiments, and error bars represent standard deviations.
In the second experiment (−)-EGCG at 1 μM was pre-incubated with (SDS-pre) or without 0.01% SDS (no SDS) for 1 hour, followed by addition of eukaryotic 20S proteasome (0.02 μg) and suc-LLVY-AMC (20 μM). “SDS-post” represents the same treatment as “no SDS” except 0.01% SDS was added 1 hour after addition of the proteasome, (−)-EGCG and the substrate. AMC liberation was measured by fluorescence at each indicated time point and the percentage of chymotrypsin activity was determined. Values are means from 4 independent experiments, and error bars represent standard deviations.

LNCaP cells [2] = experiment: Western blot of proteasome target proteins in LNCaP cells; format: cell-based, human; conditions: 25 μM, up to 9 hours
Description: as §1
To investigate whether (−)-EGCG-amide and (+)-EGCG-amide inhibit intact tumor cell proteasome activity, human prostate cancer LNCaP cells were treated with 25 μM of (−)- or (+)-EGCG-amide for up to 9 hours, followed by measurement of p27, IκB-α and Bax, three well-known proteasome target proteins (Pagano, M. et al. Science, 1995, 269:682-685; An, B. et al. Cell Death Differ, 1998, 5:1062-75; Sun, J. et al. Cancer Res, 2001, 61:1280-1284; Palombella, V. J. et al. Cell, 1994, 78:773-785; Thompson, J. E. et al. Cell, 1995, 80:573-582; Perkins, N. D. Trends Biochem Sci, 2000, 25:434-440; Chang, Y. C. et al. Cell Growth Differ, 1998, 9:79-84; Li, B. and Dou, Q. P. Proc Natl Acad Sci USA, 2000, 97:3850-3855; Nam, S. et al. Cancer Epidemiol Biomarkers Prey, 2001, 10:1083-1088). In this experiment (−)-EGCG and (+)-EGCG were used as positive controls.
Having determined that the synthetic GTP-1 to −5 analogs are able to inhibit the proteasomal chymotrypsin-like activity in vitro (FIG. 8), these compounds were investigated for their potency in inhibiting intact tumor cellular proteasome activity. To do so, human prostate cancer LNCaP cells were treated with one of these compounds for the indicated hours, followed by measuring levels of proteasome target proteins, p27, IκB-α, and Bax, and polyubiquitinated proteins.

[3] = test system: 26S proteasome in a Jurkat cell lysate; experiment: Chymotrypsin-like activity of 26S proteasome in Jurkat cell lysate; format: biochemical, human; conditions: 10 μM
Description: To determine the specificity of the synthetic GTP analogs, their effects were tested on the chymotrypsin-like and trypsin-like activities of the 26S proteasome in a Jurkat cell lysate. […] (+)-GCG at the same concentration inhibited ˜50% of the chymotrypsin-like activity. The potencies of (+)-EGCG and (+)-GCG were similar to those of their natural partners, respectively (FIG. 17A). […] Furthermore, none of the synthetic or control natural compounds could inhibit more than 15% of activity of a purified calpain enzyme (FIG. 17C). […] Values are mean triplicates and error bars denote standard deviations.

LNCaP cells [4] = experiment: Soft agar colony formation assay; format: cell-based, human; conditions: 10 μM, 14 day-incubation
Description: Soft Agar Assay. The soft agar assay was performed according to Smith et al. (Smith, D. M. et al. Mol Med, 2002, 8:382-392) with a few modifications. In brief, in a six-well plate, a bottom feeder layer (0.6% agar) was prepared with DMEM media containing 10% fetal bovine serum, 100 units/ml penicillin, and 100 μg/ml streptomycin. A top layer (0.3% agar) was prepared with DMEM and the same media as described above but containing 2×10^4 prostate cancer LNCaP cells and indicated analogs or DMSO as a control. Plates were incubated at 37° C. in 5% CO2 in a humidified incubator for two weeks. MTT (1 mg/ml) was added to each well and incubated overnight to allow complete formation of purple formazan crystals. The plates were then scanned and photographed, and the number of colonies was quantified by QUANTITY ONE v.4.0.3 software (Bio-Rad, Hercules, Calif.).
The […] effects of several GTP analogs were investigated with a soft agar assay that measures the transforming activity of human tumor cells. LNCaP cells were plated in soft agar (see Materials and Methods) along with 50 μM of GTP-1, -2, -3, (−)-EGCG (as a positive control; Smith, D. M. et al. Mol Med, 2002, 8:382-392, 2002), or the solvent (as a negative control), followed by a 14 day-incubation to allow for colony formation (FIGS. 12A and 12B).
In a second experiment, LNCaP cells were plated in soft agar along with 10 μM of each indicated GTP or solvent (H2O), followed by a 14 day-incubation to allow for colony formation (FIG. 21A). […] Colonies were quantified with an automated counter and presented as mean values from triplicate independent experiments. Error bars denote standard deviations.

purified 20S proteasome [5] = molecular target: purified 20S proteasome (UniProt Q9P992); experiment: Inhibition of chymotrypsin-like activity of purified 20S proteasome (source not stated); format: biochemical; design: other: 1 μM; other: 10 μM; conditions: 10 μM
Description: as §2

purified 20S proteasome [6] = experiment: as above; format: biochemical
Description: as §2

Sequence of purified 20S proteasome (UniProt Q9P992) (Q9P992 whole entry): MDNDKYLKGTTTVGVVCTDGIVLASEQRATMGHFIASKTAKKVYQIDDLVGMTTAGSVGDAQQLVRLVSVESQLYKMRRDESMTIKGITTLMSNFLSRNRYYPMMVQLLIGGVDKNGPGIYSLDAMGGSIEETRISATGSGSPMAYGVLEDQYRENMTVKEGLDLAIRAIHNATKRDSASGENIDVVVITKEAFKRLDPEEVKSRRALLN

Structure (SMILES)	inhibition of proteasome activity / accumulation of p27 (MCF-7 cells)	levels of p27 protein (VA-13 cells)	pIC50 [1]	levels of p27, IκB-α and Bax (LNCaP cells [2])	inhibition of chymotrypsin-like activity of 26S proteasome [3]	inhibition of colony formation (LNCaP cells [4]) [%]	inhibition of proteasomal activity (purified 20S proteasome [5])	inhibition of the proteasome (in words) (purified 20S proteasome [6])	inhibition of the proteasome (in words) (purified 20S proteasome [6]; listed as benzyl protected-EGCG)
O=C(N[C@H]1Cc2c(O)cc(O)cc2O[C@H]1c1cc(O)c(O)c(O)c1)c1cc(O)c(O)c(O)c1 [(+)-EGCG-amide, (+)-[2S, 3S]-N-[5,7-Dihydroxy-2-(3,4,5-trihydroxyphenyl)-chroman-3-yl]-3,4,5-trihydroxybenzamide]	able to inhibit the proteasome activity	significantly increased levels of p27 protein	6.39	able to increase levels of p27, IκB-α and Bax by 3 hours	–	–	–	–	–
O=C(O[C@H]1Cc2c(OCc3ccccc3)cc(OCc3ccccc3)cc2O[C@H]1c1cc(OCc2ccccc2)c(OCc2ccccc2)c(OCc2ccccc2)c1)c1cc(OCc2ccccc2)c(OCc2ccccc2)c(OCc2ccccc2)c1 [Bn-(+)-EGCG]	–	–	–	–	could not inhibit the proteasomal chymotrypsin activity at all	~10	did not significantly inhibit	can not inhibit the proteasome	cannot inhibit the proteasome; also recorded: fails to inhibit the proteasome
